Among the data in PubChem BioAssay (NCI) are TGI and GI50 values, retold here.

“And” between values parts separate entries of the source, which are not always exact repeats. Equal entries are not always repeated.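 Step 1: Grow cells in 96-well plates. Step 2: Expose to compound for 48 hours at 5 concentrations. Step 3: Interpolate endpoints linearly; if unreached, use highest concentration. Abbreviation: GI50, concentration required for 50% inhibition of growth. The concentration for full growth arrest is given as TGI.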 Bounds are passed on as bounds.

Among the test systems are TK-10 renal; RPMI-8226 leukemia; M14 melanoma; MOLT-4 leukemia; IGROV1 ovarian; SF-539 CNS; HCC-2998 colon; UACC-257 melanoma; RXF 393 renal; SNB-19 CNS.
What all share (experiment): NCI tumour cell line growth inhibition, 48 h

`N#C[C@H](c1nc2ccccc2[nH]1)c1nc2ccccc2nc1Cl`: the TGI was 37.4 µM with TK-10 renal; 36.7 µM in the assay with RPMI-8226 leukemia; over 50.3 µM in the assay on M14 melanoma; 16.8 µM with MOLT-4 leukemia; 30.2 µM in the assay with IGROV1 ovarian; over 100 µM in the assay on SF-539 CNS. For the same compound, the TGI is over 60.9 µM in the assay on HCC-2998 colon, over 62.5 µM with UACC-257 melanoma, over 100 µM in the assay with RXF 393 renal and 38.8 µM in the assay with SNB-19 CNS.

On to `COc1ccc(/C=C2/C(=O)C(c3ccccc3)N(c3ccccc3)C2=O)cc1OC` (configuration not stated), for which the TGI with TK-10 renal was over 10 µM; in the assay with RPMI-8226 leukemia it was over 10 µM; in the assay on M14 melanoma it was over 10 µM; in the assay with MOLT-4 leukemia, over 10 µM; with IGROV1 ovarian, 2.28 µM; with SF-539 CNS it was over 10 µM. Also, the TGI with HCC-2998 colon, with UACC-257 melanoma, in the assay with RXF 393 renal and in the assay on SNB-19 CNS was over 10 µM each time.

As for `[B]C(=O)NC(CC(C)C)C(=O)NC1c2ccsc2C(=O)C1O` (configuration not stated) (tested in a mixture with another compound), the TGI in the assay with TK-10 renal, in the assay with RPMI-8226 leukemia, in the assay on M14 melanoma, in the assay with MOLT-4 leukemia, with IGROV1 ovarian and with SF-539 CNS was over 100 µM in each case. The TGI with HCC-2998 colon, in the assay on UACC-257 melanoma, with RXF 393 renal and in the assay with SNB-19 CNS was over 100 µM in each case.

On to `COC(=O)/C=C/c1cc(OC)c2c(c1)C(C(=O)OC)C(c1ccc(O)c(OC)c1)O2` (configuration not stated), for which the GI50 with TK-10 renal was 47.5 µM and 15.6 µM and 15.3 µM; with RPMI-8226 leukemia, 2.94 µM and 3.93 µM and 1.69 µM; in the assay with MOLT-4 leukemia, 5.39 µM and 4.7 µM and 1.94 µM; with IGROV1 ovarian, 4.9 µM and 2.61 µM and 2.09 µM; in the assay on HCC-2998 colon, 24.5 µM and 10.6 µM and 5.69 µM; in the assay with UACC-257 melanoma, > 25.9 µM and 6.49 µM. Also, the GI50 in the assay on SNB-19 CNS is 4.15 µM and 4.27 µM and 9.01 µM. Further, the TGI in the assay with TK-10 renal was over 100 µM; in the assay on RPMI-8226 leukemia, 13.6 µM and > 60.8 µM and 15.6 µM; in the assay with M14 melanoma, over 100 µM; in the assay with MOLT-4 leukemia, > 100 µM and 16.7 µM; in the assay on IGROV1 ovarian, > 100 µM and 35.2 µM; with SF-539 CNS, 9.24 µM and 8.25 µM and 10.4 µM. The TGI is 48.4 µM and 25.6 µM and 21 µM in the assay on HCC-2998 colon; > 100 µM and 63.2 µM in the assay with UACC-257 melanoma; 9.76 µM and 7.8 µM and > 43.6 µM in the assay on RXF 393 renal; over 100 µM with SNB-19 CNS.

As to `Nc1nc(=O)n(C2CC(O)C(CO)O2)c2nc(-c3ccc(-c4ccccc4)cc3)cnc12` (configuration not stated), the TGI in the assay on TK-10 renal is over 100 µM; with RPMI-8226 leukemia, over 100 µM; with M14 melanoma, over 100 µM; in the assay on MOLT-4 leukemia it was 76 µM; with IGROV1 ovarian it was over 100 µM; in the assay with SF-539 CNS it was over 100 µM. Moreover, the TGI in the assay with HCC-2998 colon was over 100 µM; in the assay on UACC-257 melanoma it was over 100 µM; in the assay with RXF 393 renal, over 100 µM; with SNB-19 CNS, 91.1 µM.

Consider `CC(C)(C)OC(=O)/C=C/[C@@H](CCC(=O)/C=C/[C@H](/C=C\CCCC(=O)O)NC1(c2ccccc2)c2ccccc2-c2ccccc21)O[Si](C)(C)C(C)(C)C`, for which the TGI was 52 µM in the assay with TK-10 renal; 85.1 µM with RPMI-8226 leukemia; 29.4 µM with M14 melanoma; over 100 µM with MOLT-4 leukemia; 35.5 µM with IGROV1 ovarian; 36.6 µM in the assay on SF-539 CNS. Further, the TGI in the assay with HCC-2998 colon was 32.5 µM; with UACC-257 melanoma, 34.2 µM; in the assay with RXF 393 renal, 24.5 µM; in the assay on SNB-19 CNS, 41.8 µM.

In the case of `O=C1CN2CCN(CC2)CC(=O)Nc2ccc(cc2)S(=O)(=O)c2ccc(cc2)NC(=O)CN2CCN(CC2)CC(=O)Nc2ccc(cc2)S(=O)(=O)c2ccc(cc2)N1`, the TGI in the assay on TK-10 renal was over 100 µM; with RPMI-8226 leukemia it was over 80.8 µM; with M14 melanoma it was over 78.6 µM; in the assay with MOLT-4 leukemia, over 89 µM; with IGROV1 ovarian it was over 100 µM; in the assay on SF-539 CNS, 49.2 µM. The TGI in the assay with HCC-2998 colon, in the assay with UACC-257 melanoma, in the assay with RXF 393 renal and in the assay on SNB-19 CNS was over 100 µM in each case.

On to `O=c1oc2ccc([N+](=O)[O-])cc2cc1-c1csc(-c2ccccc2)n1`, for which the TGI in the assay with TK-10 renal, with RPMI-8226 leukemia, in the assay on M14 melanoma, with MOLT-4 leukemia, in the assay with IGROV1 ovarian and with SF-539 CNS was over 100 µM in each case. The TGI in the assay on HCC-2998 colon, in the assay on UACC-257 melanoma, in the assay on RXF 393 renal and in the assay with SNB-19 CNS was over 100 µM each time.

For `CCOc1ccnc2c(OC)c(C)c3nc4ccccc4nc3c12`, the TGI with TK-10 renal, in the assay on RPMI-8226 leukemia, with M14 melanoma, with MOLT-4 leukemia, in the assay on IGROV1 ovarian and in the assay with SF-539 CNS was over 100 µM each time. In addition, the TGI with HCC-2998 colon, with UACC-257 melanoma, in the assay with RXF 393 renal and in the assay with SNB-19 CNS was over 100 µM in each case.

As for `O=C1CCCC1C(O)(C(F)(F)Cl)C(F)(F)Cl` (configuration not stated), the TGI in the assay on TK-10 renal, in the assay with RPMI-8226 leukemia, in the assay on M14 melanoma, with MOLT-4 leukemia, in the assay on IGROV1 ovarian and with SF-539 CNS was over 10 µM throughout. Also, the TGI in the assay with HCC-2998 colon, with UACC-257 melanoma, with RXF 393 renal and with SNB-19 CNS was over 10 µM throughout.

Turning to `CN(C)C=Nc1cccc2c1NSN2`, the TGI in the assay on TK-10 renal, in the assay with RPMI-8226 leukemia, with M14 melanoma, in the assay on MOLT-4 leukemia, with IGROV1 ovarian and with SF-539 CNS was over 100 µM throughout. Besides, the TGI in the assay on HCC-2998 colon, in the assay on UACC-257 melanoma, in the assay on RXF 393 renal and in the assay with SNB-19 CNS was over 100 µM each time.

Take `CC(=O)Oc1ccc(C2SCc3nc4ccccc4n32)cc1` (configuration not stated): the TGI in the assay on TK-10 renal was over 100 µM; in the assay on RPMI-8226 leukemia, over 100 µM; with M14 melanoma, over 100 µM; with MOLT-4 leukemia it was 46.4 µM; in the assay with IGROV1 ovarian, over 100 µM; with SF-539 CNS, over 100 µM. The TGI is 69 µM with HCC-2998 colon, over 100 µM with UACC-257 melanoma, 77.3 µM in the assay on RXF 393 renal and over 100 µM in the assay with SNB-19 CNS.
